This is an account of results in paper PMC7044277 (Nature Communications, 2020).

Test [1] deals with T1, 320 non-olfactory GPCRs (Homo sapiens, UniProt P32241).
T1 construct: expressed in transfected cells; host or cells: HTLA cells
It is filed as cell-based. More on the design: GPCRome screening signal at PTGIR / GPCRome screening signal at PTH1R / GPCRome screening signal at PTH2R / GPCRome screening signal at QRFP / GPCRome screening signal at RXFP2 / GPCRome screening signal at RXFP3 / GPCRome screening signal at RXFP4 / GPCRome screening signal at S1PR2 / GPCRome screening signal at S1PR3 / GPCRome screening signal at S1PR4 / GPCRome screening signal at S1PR5 / GPCRome screening signal at SCTR / GPCRome screening signal at SSTR2 / GPCRome screening signal at SSSTR / GPCRome screening signal at SSTR4 / GPCRome screening signal at SSTR5 / GPCRome screening signal at SUCNR1 / GPCRome screening signal at TA1 / GPCRome screening signal at TAAR2 / GPCRome screening signal at TAAR5 / GPCRome screening signal at TAAR6 / GPCRome screening signal at TAAR8 / GPCRome screening signal at TACR1 / GPCRome screening signal at TACR2 / GPCRome screening signal at TACR3 / GPCRome screening signal at TBXA2R / GPCRome screening signal at TSHR / GPCRome screening signal at UTS2R / GPCRome screening signal at VIPR2 / GPCRome screening signal at GPR68 no V2 Tail / GPCRome screening signal at GRM2 / GPCRome screening signal at GRM3: reference not given here. Particulars: receptor VIPR1.

Test [2] addresses 320 non-olfactory GPCRs (Homo sapiens, UniProt Q03431). In kind it is cell-based. More on the design: GPCRome screening signal at PTGIR / GPCRome screening signal at PTH1R / GPCRome screening signal at PTH2R / GPCRome screening signal at QRFP / GPCRome screening signal at RXFP2 / GPCRome screening signal at RXFP3 / GPCRome screening signal at RXFP4 / GPCRome screening signal at S1PR2 / GPCRome screening signal at S1PR3 / GPCRome screening signal at S1PR4 / GPCRome screening signal at S1PR5 / GPCRome screening signal at SCTR / GPCRome screening signal at SSTR2 / GPCRome screening signal at SSSTR / GPCRome screening signal at SSTR4 / GPCRome screening signal at SSTR5 / GPCRome screening signal at SUCNR1 / GPCRome screening signal at TA1 / GPCRome screening signal at TAAR2 / GPCRome screening signal at TAAR5 / GPCRome screening signal at TAAR6 / GPCRome screening signal at TAAR8 / GPCRome screening signal at TACR1 / GPCRome screening signal at TACR2 / GPCRome screening signal at TACR3 / GPCRome screening signal at TBXA2R / GPCRome screening signal at TSHR / GPCRome screening signal at UTS2R / GPCRome screening signal at VIPR2 / GPCRome screening signal at GPR68 no V2 Tail / GPCRome screening signal at GRM2 / GPCRome screening signal at GRM3: reference not given here. Particulars: receptor PTH1R.

Where [3] appears, read: Fig_5f, single replicate values.

Values joined by “and” are separate entries in the source; they are usually repeats but may differ in a detail not shown here. Identical values can stand only once.
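For GPCRome agonism screen response in this document: fold over basal response of each receptor without drug.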

T1 sequence (P32241 31-457): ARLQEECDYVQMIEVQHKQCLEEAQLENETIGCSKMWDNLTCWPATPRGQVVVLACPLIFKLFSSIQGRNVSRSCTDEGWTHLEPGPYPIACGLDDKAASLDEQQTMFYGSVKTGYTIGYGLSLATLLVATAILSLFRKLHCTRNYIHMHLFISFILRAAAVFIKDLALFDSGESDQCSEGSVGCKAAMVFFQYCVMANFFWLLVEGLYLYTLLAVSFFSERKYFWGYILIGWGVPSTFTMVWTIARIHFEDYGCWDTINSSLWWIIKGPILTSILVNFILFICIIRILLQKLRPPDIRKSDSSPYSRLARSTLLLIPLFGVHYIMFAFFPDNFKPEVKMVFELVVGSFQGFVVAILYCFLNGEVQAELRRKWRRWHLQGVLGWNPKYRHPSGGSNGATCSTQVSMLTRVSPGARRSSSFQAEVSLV
Sequence of 320 non-olfactory GPCRs (Homo sapiens, UniProt Q03431) (Q03431 27-593): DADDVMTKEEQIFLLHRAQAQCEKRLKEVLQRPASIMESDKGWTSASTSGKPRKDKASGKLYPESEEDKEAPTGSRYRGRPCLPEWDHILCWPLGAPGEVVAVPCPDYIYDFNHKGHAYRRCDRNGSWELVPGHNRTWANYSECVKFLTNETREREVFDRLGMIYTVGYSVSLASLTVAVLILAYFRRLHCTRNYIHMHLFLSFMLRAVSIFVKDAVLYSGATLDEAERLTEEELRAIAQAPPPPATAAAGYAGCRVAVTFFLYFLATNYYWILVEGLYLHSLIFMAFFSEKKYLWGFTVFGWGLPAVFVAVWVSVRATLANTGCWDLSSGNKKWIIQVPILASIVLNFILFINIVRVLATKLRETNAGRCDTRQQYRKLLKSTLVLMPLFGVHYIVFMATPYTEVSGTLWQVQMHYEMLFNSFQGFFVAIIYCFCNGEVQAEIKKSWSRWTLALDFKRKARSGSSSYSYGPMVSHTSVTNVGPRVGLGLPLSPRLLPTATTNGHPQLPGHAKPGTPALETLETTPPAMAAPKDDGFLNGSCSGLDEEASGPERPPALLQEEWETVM

For the compound `CCOc1ccccc1CCC(C)NCC1(O)CCCCC1.Cl` (racemic) [Fig_5f], in test [1] (setting [3]), the “GPCRome screening signal at VIPR1” value is 1.328 and 1.861 and 1.314 and 1.467. The “GPCRome screening signal at PTH1R” value in test [2] (setting [3]) is 2.489 and 1.041 and 1.352 and 1.077.

As for `CCOc1cccc2cc(C(C)NCC3(O)CCCCC3)oc12` (stereo not shown) [O4LE6], the “GPCRome agonism screen response” value in test [1] (replicate values, Fig_4g) was 0.8893 and 1.908 and 1.195 and 1.527; in test [2] (replicate values, Fig_4g) it was 0.6677 and 0.9983 and 1.484 and 1.06.
